Columns and labels:
[1] = molecular target: Ba/F3 EGFR-D770-N771ins_SVD (Homo sapiens, UniProt P00533, DUP768-770, cells depend on it); test: Cell proliferation assay (CellTiter-Glo), Ba/F3 EGFR-D770-N771ins_SVD cells; format: cell-based; details: 72 hrs, CTG assay, * = average of multiple measurements, read-out: Ba/F3 EGFR-D770-N771ins_SVD (nM), IC50 of cell proliferation
Description: (§1) I. Cell proliferation assay (i) Reagents and consumables • Fetal bovine serum (FBS) (GBICO, Cat #10099-141); • CellTiter-Glo® Luminescent Cell Viability Assay Kit (Promega, Cat #G7572); • Black transparent flat-bottomed 96-well plate (Corning®, Cat #3603).
(§2) • SpectraMax Multi-Label Microplate Detector MD, 2104-0010A; • CO2 incubator, Thermo Scientific 3100 Series; • Biosafety cabinet, Thermo Scientific, 1300 Series type A2; • Inverted microscope, Olympus, CKX41SF; • Siemens refrigerator KK25E76TI. (iii) Cell lines and culture conditions
(§3) (iv) Experimental procedures 1. Cell culture and seeding: • (1) Cells in the logarithmic growth phase were harvested, and counted using a platelet counter. Cell viability was detected by the trypan blue exclusion assay to ensure that the cell viability was above 90%. • (2) The cell concentration was adjusted to achieve the final density; and 90 μL of the cell suspension was added to the 96-well plate. • (3) The cells were incubated in the 96-well plate overnight at 37° C. in the presence of 5% CO2 with 95% humidity. 2. TO benchmark data: • (1) 10 μL of PBS was added to each well of the TO flat plate containing the cells. • (2) The CTG reagent was thawed, and the cell plate was equilibrated to room temperature for 30 min. • (3) An equal volume of CTG solution was added to each well. • (4) The cells were shaken for 5 min on an orbital shaker for lysis. • (5) The cell plate was left at room temperature for 20 min to stabilize luminescent signals. • (6) The values of TO luminescent signals were read. 3. Compound dilution and addition • (1) According to the compound information table, a corresponding volume of DMSO was added to the corresponding compound powder to prepare a 10 mM stock solution. • (2) Compound solutions diluted at 1000 fold and 3.16 fold were prepared. • (3) The compound solution diluted at 1000 fold was diluted at 100 fold with PBS, to prepare the compound solutions at 10 fold in 9 concentrations, with the maximum concentration of […]; and the compound solution was diluted at 3.16 fold. 10 μL of medicament solution was added to each well of the seeded 96-well plate. Three replicate wells were provided for each concentration of the compound, and the final concentration of DMSO was 0.1%. • (4) Cells were placed in the 96-well plate containing the medicament and subsequently cultured for 72 hrs at 37° C. in the presence of 5% CO2 with 95% humidity, and then, CTG assay was conducted. 4. Reading of luminescent signals • (1) The CTG reagent was thawed, and the cell plate was equilibrated to room temperature for 30 min. • (2) An equal volume of CTG solution was added to each well. • (3) The cells were shaken for 5 min on an orbital shaker for lysis.
(§4) (4) The cell plate was left at room temperature for 20 min to stabilize the luminescent signals. • (5) Luminescent values were read. Data processing
(§5) The data were analyzed using software GraphPad Prism 7.0, and fitted by the nonlinear S-curve regression to obtain a dose-effect curve, based on which the IC50 value (unit: nM) was calculated, with the specific test results shown in Table 1.
(§6) Cell viability (%)=(Lum test medicament-Lum culture medium control)/(Lum cell control-Lum culture medium control)×100%.

[2] = molecular target: Ba/F3 EGFR-V769_D770insASV (Homo sapiens, UniProt P00533, DUP767-769, cells depend on it); test: Cell proliferation assay (CellTiter-Glo), Ba/F3 EGFR-V769_D770insASV cells; format: cell-based; details: 72 hrs, CTG assay, * = average of multiple measurements, read-out: Ba/F3 EGFR-V769_D770insASV (nM), IC50 of cell proliferation
Sequence of Ba/F3 EGFR-V769_D770insASV (P00533 with tags, fused parts or gaps DUP767-769): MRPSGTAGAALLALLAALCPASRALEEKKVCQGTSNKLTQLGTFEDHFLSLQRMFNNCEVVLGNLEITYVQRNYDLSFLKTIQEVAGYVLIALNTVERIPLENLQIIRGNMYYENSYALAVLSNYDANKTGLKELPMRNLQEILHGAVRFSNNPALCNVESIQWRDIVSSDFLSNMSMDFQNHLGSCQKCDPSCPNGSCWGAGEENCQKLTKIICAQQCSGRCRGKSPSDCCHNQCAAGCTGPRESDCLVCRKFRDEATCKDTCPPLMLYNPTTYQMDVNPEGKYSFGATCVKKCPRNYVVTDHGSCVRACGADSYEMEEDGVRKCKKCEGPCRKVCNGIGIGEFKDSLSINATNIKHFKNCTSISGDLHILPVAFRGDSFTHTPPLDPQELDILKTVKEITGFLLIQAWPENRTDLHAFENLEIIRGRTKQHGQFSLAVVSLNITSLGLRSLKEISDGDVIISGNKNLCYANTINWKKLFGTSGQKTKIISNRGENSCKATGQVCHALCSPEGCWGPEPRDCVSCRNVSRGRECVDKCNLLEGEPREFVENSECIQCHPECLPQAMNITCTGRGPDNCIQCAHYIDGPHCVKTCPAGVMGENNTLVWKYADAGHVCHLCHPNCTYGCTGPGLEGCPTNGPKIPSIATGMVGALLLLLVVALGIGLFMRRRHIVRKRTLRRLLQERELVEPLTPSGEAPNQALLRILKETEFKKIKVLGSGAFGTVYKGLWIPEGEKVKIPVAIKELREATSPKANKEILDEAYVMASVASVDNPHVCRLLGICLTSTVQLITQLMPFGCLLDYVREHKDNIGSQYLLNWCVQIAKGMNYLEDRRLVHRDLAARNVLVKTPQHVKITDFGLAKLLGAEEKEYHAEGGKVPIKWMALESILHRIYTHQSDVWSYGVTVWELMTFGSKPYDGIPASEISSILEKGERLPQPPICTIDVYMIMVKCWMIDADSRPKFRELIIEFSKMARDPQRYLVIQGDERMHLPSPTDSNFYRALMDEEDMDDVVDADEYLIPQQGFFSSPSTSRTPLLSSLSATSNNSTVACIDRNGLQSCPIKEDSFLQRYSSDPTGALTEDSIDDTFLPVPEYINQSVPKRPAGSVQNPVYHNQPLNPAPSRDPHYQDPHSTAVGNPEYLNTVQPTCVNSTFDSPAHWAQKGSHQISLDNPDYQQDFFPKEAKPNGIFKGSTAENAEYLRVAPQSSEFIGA
Description: as §1, §2, §3, §4, §5, §6

Sequence of Ba/F3 EGFR-D770-N771ins_SVD (P00533 with tags, fused parts or gaps DUP768-770): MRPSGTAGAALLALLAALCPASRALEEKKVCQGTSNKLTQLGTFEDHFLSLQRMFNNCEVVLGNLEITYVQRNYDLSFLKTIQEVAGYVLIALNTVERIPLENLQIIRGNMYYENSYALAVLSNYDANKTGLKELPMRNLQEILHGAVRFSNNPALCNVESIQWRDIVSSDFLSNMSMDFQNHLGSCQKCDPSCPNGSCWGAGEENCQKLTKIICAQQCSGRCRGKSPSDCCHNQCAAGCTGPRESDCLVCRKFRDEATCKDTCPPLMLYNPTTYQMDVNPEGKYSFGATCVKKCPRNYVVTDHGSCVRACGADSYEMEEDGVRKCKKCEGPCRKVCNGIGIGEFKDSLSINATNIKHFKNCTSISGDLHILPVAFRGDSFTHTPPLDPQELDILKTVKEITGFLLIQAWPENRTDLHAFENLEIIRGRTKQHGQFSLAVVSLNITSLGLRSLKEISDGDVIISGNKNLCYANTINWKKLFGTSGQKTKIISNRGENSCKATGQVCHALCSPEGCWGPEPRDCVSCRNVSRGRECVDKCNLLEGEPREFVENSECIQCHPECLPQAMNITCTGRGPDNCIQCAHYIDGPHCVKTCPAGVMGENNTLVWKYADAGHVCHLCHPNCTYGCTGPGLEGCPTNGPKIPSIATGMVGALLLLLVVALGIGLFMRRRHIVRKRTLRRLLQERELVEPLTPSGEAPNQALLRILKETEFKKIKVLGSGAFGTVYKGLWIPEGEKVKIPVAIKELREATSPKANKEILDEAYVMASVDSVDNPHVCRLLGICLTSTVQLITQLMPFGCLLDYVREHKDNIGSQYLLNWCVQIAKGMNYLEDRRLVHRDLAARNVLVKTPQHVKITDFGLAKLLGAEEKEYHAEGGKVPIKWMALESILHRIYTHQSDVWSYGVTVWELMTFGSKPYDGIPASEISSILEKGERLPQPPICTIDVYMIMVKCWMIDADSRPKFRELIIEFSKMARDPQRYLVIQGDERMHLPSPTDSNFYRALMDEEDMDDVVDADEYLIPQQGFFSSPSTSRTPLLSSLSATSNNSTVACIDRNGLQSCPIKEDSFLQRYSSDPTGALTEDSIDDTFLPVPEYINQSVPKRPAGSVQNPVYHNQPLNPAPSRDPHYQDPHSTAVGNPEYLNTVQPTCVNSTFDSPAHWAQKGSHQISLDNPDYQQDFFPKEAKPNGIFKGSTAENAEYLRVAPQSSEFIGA

C=CC(=O)Nc1cc(Nc2nccc(N3CC4(CCOCC4)c4nc(C)ccc43)n2)c(OC)cc1N(C)CCN(C)C [Example 65]
GI50 [1]: 108 nM

C=CC(=O)Nc1cc(Nc2nccc(N3CC(C)(C)c4nc(C)c(C)cc43)n2)c(OC(C)C)cc1N(C)CCN(C)C [Example 43, N-(2-((2-(dimethylamino)ethyl) (methyl)amino)-4-isopropoxy-5-((4-(3,3,5,6-tetramethyl-2,3-dihydro-1H-pyrrolo[3,2-b]pyridin-1-yl)pyrimidin-2-yl)amino)phenyl)acrylamide]
GI50 [1]: 38.5 nM

C=CC(=O)Nc1cc(Nc2nccc(N3CC4(CCN(C)C4)c4nc(C)ccc43)n2)c(OC)cc1N(C)CCN(C)C (centres unmarked) [Example 71, N-(2-((2-(dimethylamino)ethyl) (methyl)amino)-5-((4-(1,5′-dimethyl-spiro[pyrrolidin-3,3′-pyrrolo[3,2-b]pyridin]-1′(2′H)-yl)pyrimidin-2-yl)amino)-4-methoxyphenyl) acrylamide]
GI50 [1]: 372 nM

C=CC(=O)Nc1cc(Nc2cc(N3CC(C)(C)c4nc(-c5cnn(C)c5)ccc43)ccn2)c(OC)cc1N(C)CCN(C)C [Example 67, N-(5-((4-(3,3-dimethyl-5-(1-methyl-1H-pyrazol-4-yl)-2,3-dihydro-1H-pyrrolo[3,2-b]pyridin-1-yl)pyridin-2-yl)amino)-2-((2-(dimethyl-amino)ethyl)(methyl)amino)-4-methoxyphenyl)acrylamide]
GI50 [1]: 108 nM

C=CC(=O)Nc1cc(Nc2nccc(N3CC4(CCCC4)c4nc(C)ccc43)n2)c(OCC(F)(F)F)cc1N(C)CCN(C)C [Example 40]
GI50 [1]: 37 nM

C=CC(=O)Nc1cc(Nc2nccc(N3CC(C)(C)c4nc(C)c(C)cc43)n2)c(OCC)cc1N(C)CCN(C)C [Example 27]
GI50 [1]: 31.5 nM
GI50 [2]: 68.8 nM

C=CC(=O)Nc1cc(Nc2nccc(N3CC(C)(C)c4nc(C)ccc43)n2)c(OC(C)C)cc1N(C)CCN(C)C [Example 38, N-(2-((2-(dimethylamino)ethyl) (methyl)amino)-4-isopropoxy-5-((4-(3,3,5-trimethyl-2,3-dihydro-1H-pyrrolo[3,2-b]pyridin-1-yl)pyrimidin-2-yl)amino)phenyl)acrylamide]
GI50 [1]: 124 nM
GI50 [2]: 266 nM

C=CC(=O)Nc1cc(Nc2nccc(N3CC(C)(C)c4ncc(-c5ccccc5F)cc43)n2)c(OC)cc1N(C)CCN(C)C [Example 19, N-(2-((2-(dimethylamino)ethyl) (methyl)amino)-5-((4-(6-(2-fluoro-phenyl)-3,3-dimethyl-2,3-dihydro-1H-pyrrolo[3,2-b]pyridin-1-yl)pyrimidin-2-yl)amino)-4-methoxy-phenyl)acrylamide]
GI50 [1]: 41.6 nM
GI50 [2]: 142 nM

C=CC(=O)Nc1cc(Nc2ncnc(N3CC(C)(C)c4nc(C)ccc43)n2)c(OC(C)C)cc1N(C)CCN(C)C [Example 37, N-(2-((2-(dimethylamino)ethyl) (methyl)amino)-4-isopropoxy-5-((4-(3,3,5-trimethyl-2,3-dihydro-1H-pyrrolo[3,2-b]pyridin-1-yl)-1,3,5-triazin-2-yl)amino)phenyl)acrylamide]
GI50 [1]: 92.2 nM
GI50 [2]: 159 nM

C=CC(=O)Nc1cc(Nc2ncnc(N3CC(C)(C)c4nc(Br)ccc43)n2)c(OC)cc1N(C)CCN(C)C [Example 41, N-(5-((4-(5-bromo-3,3-dimethyl-2,3-dihydro-1H-pyrrolo[3,2-b]pyridin-1-yl)-1,3,5-triazin-2-yl)amino)-2-((2-(dimethylamino)ethyl) (methyl)amino)-4-methoxyphenyl) acrylamide]
GI50 [1]: 35.5 nM

C=CC(=O)Nc1cc(Nc2nccc(N3CC(C)(C)c4nc(-c5cn[nH]c5)ccc43)n2)c(OC)cc1N(C)CCN(C)C [Example 58, N-(5-((4-(3,3-dimethyl-5-(1H-pyrazol-4-yl)-2,3-dihydro-1H-pyrrolo[3,2-b]pyridin-1-yl)pyrimidin-2-yl)amino)-2-((2-(dimethylamino)ethyl)(methyl)amino)-4-methoxyphenyl)acrylamide]
GI50 [1]: 68.2 nM

C=CC(=O)Nc1cc(Nc2nccc(N3CC(C)(C)c4nc5c(cc43)CCC5)n2)c(OC)cc1N(C)CCN(C)C [Example 23, N-(5-((4-(3,3-dimethyl-3,5,6,7-tetrahydrocyclopenta[b]pyrrolo[2,3-e]pyridin-1(2H)-yl)pyrimidin-2-yl)amino)-2-((2-(dimethylamino)ethyl)(methyl)amino)-4-methoxy-phenyl)acrylamide]
GI50 [1]: 13.8 nM
GI50 [2]: 26.6 nM

C=CC(=O)Nc1cc(Nc2ncnc(N3CC(C)(C)c4nc(C)ccc43)n2)c(OCC)cc1N(C)CCN(C)C [Example 25, N-(2-((2-(dimethylamino)ethyl) (methyl)amino)-4-ethoxy-5-((4-(3,3,5-trimethyl-2,3-dihydro-1H-pyrrolo[3,2-b]pyridin-1-yl)-1,3,5-triazin-2-yl)amino)phenyl)acrylamide]
GI50 [1]: 56.5 nM
GI50 [2]: 106 nM

C=CC(=O)Nc1cc(Nc2cc(N3CC(C)(C)c4nc5c(cc43)CCC5)ncn2)c(OC)cc1N(C)CCN(C)C [Example 26, N-(5-((6-(3,3-dimethyl-3,5,6,7-tetrahydrocyclopenta[b]pyrrolo[2,3-e]pyridin-1(2H)-yl)pyrimidin-4-yl)amino)-2-((2-(dimethylamino)ethyl)(methyl)amino)-4-methoxy-phenyl)acrylamide]
GI50 [1]: 22.9 nM
GI50 [2]: 76.1 nM

C=CC(=O)Nc1cc(Nc2cc(N3CC(C)(C)c4nc(-c5cnn(C)c5)ccc43)ncn2)c(OC)cc1N(C)CCN(C)C [Example 66, N-(5-((6-(3,3-dimethyl-5-(1-methyl-1H-pyrazol-4-yl)-2,3-dihydro-1H-pyrrolo[3,2-b]pyridin-1-yl)pyrimidin-4-yl)amino)-2-((2-(dimethylamino)ethyl)(methyl)amino)-4-methoxyphenyl)acrylamide]
GI50 [1]: 89.1 nM

C=CC(=O)Nc1cc(Nc2nccc(N3CC4(CN(C)C4)c4nc(C)ccc43)n2)c(OC)cc1N(C)CCN(C)C [Example 73, N-(2-((2-(dimethylamino)ethyl) (methyl)amino)-5-((4-(1,5′-dimethyl-spiro[azetidine-3,3′-pyrrolo[3,2-b]pyridin]-1′(2′H)-yl)pyrimidin-2-yl)amino)-4-methoxyphenyl) acrylamide]
GI50 [1]: 811 nM

C=CC(=O)Nc1cc(Nc2nccc(N3CC4(CC(F)(F)C4)c4nc(C)ccc43)n2)c(OC)cc1N(C)CCN(C)C [Example 74, N-(5-((4-(3,3-difluoro-5′-methyl-spiro[cyclobutane-1,3′-pyrrolo[3,2-b]pyridin]-1′(2′H)-yl)pyrimidin-2-yl)amino)-2-((2-(dimethylamino)ethyl)(methyl)amino)-4-methoxy-phenyl)acrylamide]
GI50 [1]: 83.6 nM

C=CC(=O)Nc1cc(Nc2cc(N3CC(C)(C)c4nc(C5CC5)ccc43)ncn2)c(OC)nc1N(C)CCN(C)C [Example 70, N-(5-((6-(5-cyclopropyl-3,3-dimethyl-2,3-dihydro-1H-pyrrolo[3,2-b]pyridin-1-yl)pyrimidin-4-yl)amino)-2-((2-(dimethylamino)ethyl) (methyl)amino)-6-methoxypyridin-3-yl)acrylamide]
GI50 [1]: 121 nM

C=CC(=O)Nc1cc(Nc2ncnc(N3CC4(CCN(C)C4)c4nc(C)ccc43)n2)c(OC)cc1N(C)CCN(C)C (centres unmarked) [Example 72, N-(2-((2-(dimethylamino)ethyl) (methyl)amino)-5-((4-(1,5′-dimethyl-spiro[pyrrolidin-3,3′-pyrrolo[3,2-b]pyridin]-1′(2′H)-yl)-1,3,5-triazin-2-yl)amino)-4-methoxyphenyl) acrylamide]
GI50 [1]: 298 nM
